Data on 34 compounds can be found in patent US20260166039A1 (SCHRÖDINGER, INC., priority 2022, published 2026).

Each structure is given as a SMILES string. Where only a bound is given, the exact number is not on record here.

For the first test, the target named is T1, Wee1 kinase domain (Homo sapiens, UniProt P30291).
T1 construct: Wee1 kinase domain was purchased from Carna (catalog #05-177); purchased Carna 05-177
T1 sequence (P30291 299-569 limits assumed): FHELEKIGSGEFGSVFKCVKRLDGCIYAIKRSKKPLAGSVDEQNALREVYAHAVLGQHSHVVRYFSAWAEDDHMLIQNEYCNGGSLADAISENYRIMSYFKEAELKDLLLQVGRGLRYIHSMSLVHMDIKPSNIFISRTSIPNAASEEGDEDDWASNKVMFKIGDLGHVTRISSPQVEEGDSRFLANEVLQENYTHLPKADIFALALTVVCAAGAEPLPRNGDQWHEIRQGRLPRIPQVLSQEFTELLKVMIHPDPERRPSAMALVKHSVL
Nature of the test: Wee1 Kinase Biochemical Assay (ADP-Glo). As to conditions: 1 nM Wee1 enzyme, 15 uM ATP, 4 hours at 25° C. In short, it runs like this: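 The reaction mix held 1 nM Wee1 kinase domain, 15 uM ATP and 2 ng/mL Poly(Lys,Tyr 4:1) substrate and was left for 4 hours at 25 °C. ADP production was then measured with ADP-Glo, and percent inhibition was derived relative to DMSO and a saturating Wee1 inhibitor.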
In general terms: ADP-Glo first removes unused ATP, then detects ADP through luciferase.
`CC(C)n1nc(N2c3nc(Nc4ccc(N5CCN(C)CC5)cc4)ncc3[C@@]3(C)COC(C)(C)C[C@@H]23)ccc1=O` (single isomer, unassigned) [Example 829] registered an IC50 of under 10 nM.

The same test, now with this note: Wee1 kinase domain, 15 uM ATP, ADP-Glo.
Consider `CN(C)C(=O)c1ccc(Nc2ncc3c(n2)N(c2cccc(N=S(C)(C)=O)n2)[C@H]2CC(C)(C)OC[C@@]32C)cc1` (single isomer, unassigned) [Example 142], for which the IC50 was in the range of 10 to 100 nM. Compound `CC1(C)C[C@H]2N(c3cccc(N=S(C)(C)=O)n3)c3nc(Nc4ccc5nccn5n4)ncc3[C@@]2(C)CO1` [Example 361, ((6-((4bR,8aR)-2-(imidazo[1,2-b]pyridazin-6-ylamino)-4b,7,7-trimethyl-4b,7,8,8a-tetrahydropyrano[3′,4′:4,5]pyrrolo[2,3-d]pyrimidin-9(5H)-yl)pyridin-2-yl)imino)dimethyl-l6-sulfanone] returned an IC50 of under 10 nM. Still for that read-out and setting: under `CC1(C)C[C@@H]2N(c3cccc(N=S(C)(C)=O)n3)c3nc(Nc4ccc([C@]5(C)CCNC5)cc4)ncc3[C@]2(C)CO1` (single isomer, unassigned) [Example 172] stands 10 to 100 nM; under `CN1CCC[C@H]1c1ccc(Nc2ncc3c(n2)N(c2cccc(N=S(C)(C)=O)n2)[C@H]2CC(C)(C)OC[C@@]32C)cn1` (single isomer, unassigned) [Example 215], 100 to 1000 nM; under `CN1CCC(c2ccc(Nc3ncc4c(n3)N(c3cccc(N=S(C)(C)=O)n3)[C@H]3CC(C)(C)OC[C@@]43C)cn2)CC1` (single isomer, unassigned) [Example 139], 100 to 1000 nM. The same measure, in the same setting: the value for `Cc1cc(Nc2ncc3c(n2)N(c2cccc(N4C(=O)OC[C@@H]4C)n2)[C@H]2CC(C)(C)OC[C@@]32C)ccc1[C@H]1CCNC1` (single isomer, unassigned) [Example 266] was 10 to 100 nM; that for `CNCc1cccc(N2c3nc(Nc4ccc(C5CCOCC5)cc4)ncc3[C@]3(C)COC(C)(C)C[C@H]23)n1` (single isomer, unassigned) [Example 36] was 10 to 100 nM.

With `Cn1ccc2nc(Nc3ncc4c(n3)N(c3cccc(N=S(C)(C)=O)n3)[C@@H]3CC(C)(C)OC[C@]43C)cnc21` (single isomer, unassigned) [Example 383], the IC50 was under 10 nM. In the case of `C[C@H]1COC(=O)N1c1cccc(N2c3nc(Nc4cnn(C5CCNCC5)c4)ncc3[C@]3(C)COC(C)(C)C[C@H]23)n1` (single isomer, unassigned) [Example 254], the IC50 fell in the range of 10 to 100 nM. In turn, `C[C@H]1COC(=O)N1c1cccc(N2c3nc(Nc4ccc(O[C@@H]5CCN(C)C5)nc4)ncc3[C@]3(C)COC(C)(C)C[C@H]23)n1` (single isomer, unassigned) [Example 282] yielded an IC50 of 100 to 1000 nM. On the same count and under the same terms, the value for `Cc1cc(Nc2ncc3c(n2)N(c2cccc(N=S(C)(C)=O)n2)[C@H]2CC(C)(C)OC[C@@]32C)ccc1[C@@H]1CCN(C)C1` (single isomer, unassigned) [Example 146] was 10 to 100 nM; that for `CNCc1cccc(N2c3nc(Nc4ccc([C@@H]5CCOC5)cc4)ncc3[C@]3(C)COC(C)(C)C[C@H]23)n1` (single isomer, unassigned) [Example 37] was 100 to 1000 nM; that for `CN1CC(n2cc(Nc3ncc4c(n3)N(c3cccc(N=S(C)(C)=O)n3)[C@H]3CC(C)(C)OC[C@@]43C)cn2)C1` (single isomer, unassigned) [Example 208] was 10 to 100 nM. Consider `Cc1cc(Nc2ncc3c(n2)N(c2cccc(N=S(C)(C)=O)n2)[C@H]2CC(C)(C)OC[C@@]32C)ccc1N1CCN(C)CC1` (single isomer, unassigned) [Example 105], for which the IC50 lay in the range of 10 to 100 nM.

For `C[C@H]1COC(=O)N1c1cccc(N2c3nc(Nc4ccc([C@@H]5CCNC5)nc4)ncc3[C@]3(C)COC(C)(C)C[C@H]23)n1` (single isomer, unassigned) [Example 256], the IC50 was 10 to 100 nM.

In turn, `CN1CC[C@H](Oc2ccc(Nc3ncc4c(n3)N(c3cccc(N=S(C)(C)=O)n3)[C@H]3CC(C)(C)OC[C@@]43C)cc2)C1` (single isomer, unassigned) [Example 158] yielded a half-maximal inhibitory concentration (IC50) of 100 to 1000 nM.

The test is the same for the next values; noted with them: class symbols; 1 nM Wee1 enzyme, 15 uM ATP, 4 hours at 25° C.
Consider `CN1C[C@@H]2C[C@H]1CN2c1ccc(Nc2ncc3c(n2)N(c2cccc(C(C)(C)O)n2)[C@H]2CC(C)(C)OC[C@@]32C)cc1F` (single isomer, unassigned) [Example 432], for which the concentration for half-maximal inhibition (IC50) was in the range of 100 to 1000 nM.

On to `CC1(C)C[C@H]2N(c3cccc(N=S(C)(C)=O)n3)c3nc(NC(=O)c4cccnc4)ncc3[C@@]2(C)CO1` (single isomer, unassigned) [Example 405], for which the half-maximal inhibitory concentration (IC50) fell in the range of 10 to 100 nM.

Regarding `C[C@H]1CCC(=O)N1c1cccc(N2c3nc(Nc4ccc(N5C[C@H]6C[C@@H]5CN6C)cc4)ncc3[C@]3(C)COC(C)(C)C[C@H]23)n1` [Example 656, (S)-5-methyl-1-(6-((4bS,8aS)-4b,7,7-trimethyl-2-((4-((1R,4R)-5-methyl-2,5-diazabicyclo[2.2.1]heptan-2-yl)phenyl)amino)-4b,7,8,8a-tetrahydropyrano[3′,4′:4,5]pyrrolo[2,3-d]pyrimidin-9(5H)-yl)pyridin-2-yl)pyrrolidin-2-one], the 50% inhibitory concentration (IC50) was 10 to 100 nM. Turning to `Cc1cc(Nc2ncc3c(n2)N(c2cccc(C(C)(C)O)n2)[C@H]2CC(C)(C)OC[C@@]32C)ccc1N1C[C@@H]2C[C@H]1CN2C` (single isomer, unassigned) [Example 430], the IC50 lay in the range of 10 to 100 nM. `Cc1cc(Nc2ncc3c(n2)N(c2cccc(C(C)(C)O)n2)[C@H]2CC(C)(C)OC[C@@]32C)ccc1N1C[C@H]2C[C@@H]1CN2C` (single isomer, unassigned) [Example 426] showed an IC50 of 10 to 100 nM.

As to `CN1C[C@H]2C[C@@H]1CN2c1ccc(Nc2ncc3c(n2)N(c2cccc(N4CCOC4=O)n2)[C@H]2CC(C)(C)OC[C@@]32C)cc1F` [Example 669, 3-(6-((4bS,8aS)-2-((3-fluoro-4-((1R,4R)-5-methyl-2,5-diazabicyclo[2.2.1]heptan-2-yl)phenyl)amino)-4b,7,7-trimethyl-4b,7,8,8a-tetrahydropyrano[3′,4′:4,5]pyrrolo[2,3-d]pyrimidin-9(5H)-yl)pyridin-2-yl)oxazolidin-2-one], the IC50 fell in the range of 10 to 100 nM.

Compound `CN1[C@@H]2C[C@H]1CN(c1ccc(Nc3ncc4c(n3)N(c3cccc(C(C)(C)O)n3)[C@H]3CC(C)(C)OC[C@@]43C)cc1)C2` (single isomer, unassigned) [Example 442] displayed an IC50 of 100 to 1000 nM. As for `CN1CCC(c2ccc(Nc3ncc4c(n3)N(c3cccc(N5CCOC5=O)n3)[C@H]3CC(C)(C)OC[C@@]43C)cc2)CC1` (single isomer, unassigned) [Example 590], the half-maximal inhibitory concentration (IC50) fell in the range of 10 to 100 nM. Compound `CC1(C)C[C@@H]2N(c3cccc(N4CCOC4=O)n3)c3nc(Nc4ccc([C@@H]5CNC[C@@H]5F)cc4)ncc3[C@]2(C)CO1` [Example 674, 3-(6-((4bS,8aS)-2-((4-((3R,4R)-4-fluoropyrrolidin-3-yl)phenyl)amino)-4b,7,7-trimethyl-4b,7,8,8a-tetrahydropyrano[3′,4′:4,5]pyrrolo[2,3-d]pyrimidin-9(5H)-yl)pyridin-2-yl)oxazolidin-2-one] returned a 50% inhibitory concentration (IC50) of 10 to 100 nM. With `CN[C@@H](C)c1cc(C)nc(N2c3nc(Nc4ccc(N5CCOCC5)cc4)ncc3[C@@]3(C)COC(C)(C)C[C@@H]23)c1` (single isomer, unassigned) [Example 560], the IC50 was 10 to 100 nM. For the compound `CN1C[C@H]2C[C@@H]1CN2c1ccc(Nc2ncc3c(n2)N(c2cccc(N=S(C)(C)=O)c2)[C@H]2CC(C)(C)OC[C@@]32C)cc1` [Example 714, dimethyl((3-((4bS,8aS)-4b,7,7-trimethyl-2-((4-((1R,4R)-5-methyl-2,5-diazabicyclo[2.2.1]heptan-2-yl)phenyl)amino)-4b,7,8,8a-tetrahydropyrano[3′,4′:4,5]pyrrolo[2,3-d]pyrimidin-9(5H)-yl)phenyl)imino)-16-sulfanone], the IC50 is 10 to 100 nM.

`CN1C[C@@H]2CN(c3ccc(Nc4ncc5c(n4)N(c4cccc(N6CCCC6=O)n4)[C@H]4CC(C)(C)OC[C@@]54C)cc3)C[C@@H]2C1` [Example 695, 1-(6-((4bS,8aS)-4b,7,7-trimethyl-2-((4-((3aR,6aS)-5-methylhexahydropyrrolo[3,4-c]pyrrol-2(1H)-yl)phenyl)amino)-4b,7,8,8a-tetrahydropyrano[3′,4′:4,5]pyrrolo[2,3-d]pyrimidin-9(5H)-yl)pyridin-2-yl)pyrrolidin-2-one] yielded an IC50 of 10 to 100 nM. On the same count and under the same terms, under `CNCc1cccc(N2c3nc(Nc4ccc(=O)n(C)c4)ncc3[C@@]3(C)COC(C)(C)C[C@@H]23)n1` (single isomer, unassigned) [Example 462] stands 10 to 100 nM. Compound `CC1(C)C[C@@H]2N(c3cccc(N4CCCC4=O)n3)c3nc(Nc4ccc(O[C@H]5CCNC5)cc4)ncc3[C@]2(C)CO1` [Example 621, 1-(6-((4bS,8aS)-4b,7,7-trimethyl-2-((4-(((S)-pyrrolidin-3-yl)oxy)phenyl)amino)-4b,7,8,8a-tetrahydropyrano[3′,4′:4,5]pyrrolo[2,3-d]pyrimidin-9(5H)-yl)pyridin-2-yl)pyrrolidin-2-one] returned a half-inhibitory concentration (IC50) of 100 to 1000 nM. The same measure, in the same setting: under `CC1(C)C[C@H]2N(c3cccc(N=S(C)(C)=O)n3)c3nc(NC(=O)c4ccccn4)ncc3[C@@]2(C)CO1` (single isomer, unassigned) [Example 407] stands 10 to 100 nM. The compound `CNCc1cccc(N2c3nc(Nc4ccc(N5C[C@H]6C[C@@H](C5)O6)cc4)ncc3[C@]3(C)COC(C)(C)C[C@H]23)n1` (single isomer, unassigned) [Example 482] displayed a 50% inhibitory concentration (IC50) of 100 to 1000 nM. On the same count and under the same terms, the value for `CN1CCN(c2ccc(Nc3ncc4c(n3)N(c3cccc(C(F)F)n3)[C@@H]3CC(C)(C)OC[C@]43C)cc2)CC1` (single isomer, unassigned) [Example 807] was under 10 nM.

A word on the IC50: it is the concentration that gives 50% inhibition. Low values mean greater potency in that assay, high ones weaker potency in that assay.
